The data set relates to LLCMK-2 cells. Nature of the data set: Cytotoxicity assay (TACS MTT, mitochondrial reductase activity). Type of data set: cell-based, African green monkey. The note with it: confluent LLCMK-2 monolayers; concentration ranges that showed viral inhibition; compared to medium only controls. How it is done:
The cytotoxicity of the chemistries was measured by monitoring mitochondrial reductase activity using the TACS™ MTT cell proliferation assay (R&D Systems, Inc., Minneapolis, Minn.) according to the manufacturer's instructions. Dilutions of chemistries in serum-free DMEM were added to confluent monolayers of LLCMK-2 cells in 96-well plates for 1 h at 37° C., similar to the focus forming inhibition assays, and subsequently incubated at 37° C. with 5% (v/v) CO2 for 24 h. Absorbance at 560 nm was measured using a Tecan GeniosPro plate reader (Tecan US, Durham, N.C.).

Residues, ends and D or L forms follow the SMILES beside them.

Turning to `CC[C@H](C)[C@H](NC(=O)[C@H](CC(C)C)NC(=O)[C@@H](NC(=O)[C@H](Cc1ccccc1)NC(=O)[C@H](Cc1c[nH]c2ccccc12)NC(=O)[C@@H](N)Cc1ccccc1)[C@@H](C)O)C(=O)N[C@@H](CCCCN)C(=O)N[C@H](C(=O)N[C@@H](CCC(N)=O)C(=O)N[C@@H](C)C(=O)N[C@@H](CCCCN)C(=O)N[C@@H](CCC(N)=O)C(=O)N1CCC[C@H]1C(=O)N[C@@H](C)C(=O)N[C@@H](CCCNC(=N)N)C(=O)N[C@@H](Cc1ccc(O)cc1)C(=O)N[C@@H](CCCNC(=N)N)C(=O)N[C@@H](CCCNC(=N)N)C(=O)N[C@@H](Cc1ccccc1)C(=O)N[C@@H](CS)C(=O)O)[C@@H](C)O` [10AN] (H-FWFTLIKTQAKQPARYRRFC-OH), the “cytotoxicity (mitochondrial reductase activity of target cells)” value is on record as “not due to toxicity”.

For the origin of these results see patent publication US8637472B2, “Optimized dengue virus entry inhibitory peptide (10AN)” (University of Washington Through Its Center for …, priority 2007, dated 2014).
